{"source": "paper PMC3874807", "about": "(Bioorganic & medicinal chemistry letters, 2013)", "biological_target": "BpIspF (Burkholderia pseudomallei, UniProt Q3JRA0)", "sequence (Q3JRA0 whole entry, looked up)": "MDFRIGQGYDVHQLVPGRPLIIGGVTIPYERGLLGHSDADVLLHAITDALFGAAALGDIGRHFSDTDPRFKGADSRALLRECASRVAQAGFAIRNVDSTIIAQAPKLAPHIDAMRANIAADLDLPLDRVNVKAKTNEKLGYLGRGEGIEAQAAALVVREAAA", "assay": "biochemical", "assay_type": "binding"}
{"compound": "Oc1ccc(-n2ccnc2)cc1", "note": "[FOL955]", "values": [{"measurement": "Kd", "result": "> 500", "unit": "µM"}]}
